Reference: the NIST ThermoML archive (doi:10.1016/j.fluid.2015.03.021)
± gives the expanded uncertainty stated by the source.

Experiment: excess molar enthalpy (molar enthalpy of mixing); xn = mol fraction of the nth substance listed
Conditions: 101 kPa, Liquid, Calvet calorimetry

SMILES: CN1CCNCC1 [N-methylpiperazine] + O
- excess molar enthalpy (303.15 K, x1 = 0.0495): -0.475 ± 0.0194 kcal/mol
- excess molar enthalpy (303.15 K, x1 = 0.0997): -0.834 ± 0.0335 kcal/mol
- excess molar enthalpy (303.15 K, x1 = 0.2004): -1.18 ± 0.0478 kcal/mol
- excess molar enthalpy (303.15 K, x1 = 0.3006): -1.28 ± 0.0526 kcal/mol
- excess molar enthalpy (303.15 K, x1 = 0.3993): -1.18 ± 0.0478 kcal/mol
- excess molar enthalpy (303.15 K, x1 = 0.6): -0.841 ± 0.0335 kcal/mol
- excess molar enthalpy (303.15 K, x1 = 0.7973): -0.435 ± 0.0177 kcal/mol
- excess molar enthalpy (323.15 K, x1 = 0.3991): -1.12 ± 0.0454 kcal/mol
- excess molar enthalpy (323.15 K, x1 = 0.4012): -1.11 ± 0.0454 kcal/mol
- excess molar enthalpy (323.15 K, x1 = 0.4193): -1.09 ± 0.0454 kcal/mol
- excess molar enthalpy (323.15 K, x1 = 0.4994): -0.983 ± 0.0406 kcal/mol
- excess molar enthalpy (323.15 K, x1 = 0.5981): -0.823 ± 0.0335 kcal/mol
- excess molar enthalpy (323.15 K, x1 = 0.7019): -0.617 ± 0.0263 kcal/mol
- excess molar enthalpy (323.15 K, x1 = 0.8001): -0.42 ± 0.0172 kcal/mol
- excess molar enthalpy (323.15 K, x1 = 0.8964): -0.226 ± 0.0117 kcal/mol

SMILES: OCCNCCO [diethanolamine] + O
- excess molar enthalpy (298.15 K, x1 = 0.1002): -0.269 ± 0.011 kcal/mol
- excess molar enthalpy (298.15 K, x1 = 0.2057): -0.416 ± 0.017 kcal/mol
- excess molar enthalpy (298.15 K, x1 = 0.2992): -0.484 ± 0.0196 kcal/mol
- excess molar enthalpy (298.15 K, x1 = 0.3535): -0.49 ± 0.0198 kcal/mol
- excess molar enthalpy (298.15 K, x1 = 0.403): -0.487 ± 0.0198 kcal/mol
- excess molar enthalpy (298.15 K, x1 = 0.5035): -0.449 ± 0.0182 kcal/mol
- excess molar enthalpy (298.15 K, x1 = 0.6967): -0.303 ± 0.0124 kcal/mol
- excess molar enthalpy (298.15 K, x1 = 0.8826): -0.12 ± 0.00478 kcal/mol
